The text below walks through data of US5859032A, “Pyridine derivative, anti-ulcer drug, and antibacterial drug” (priority 1996, dated 1999).

Data set [1] has as its system stress ulcer formation (rats). Briefly: WIS: Restraint and Water Immersion Stress-Induced Ulcer Inhibition Test. The class given is in vivo, rat (male Crj:SD or Slc:SD). Particulars: rat, 100 mg/kg, oral, 7 hours water immersion stress. How it is done: WIS: Restraint and Water Immersion Stress-Induced Ulcer Inhibition Test
The degree of inhibition of the stress ulcer formation is tested.
Male Crj:SD or Slc:SD rats (6 to 7-week-old) were fasted overnight, but allowed free access to water. Each group has 5 to 8 of these rats. […] To a control group, the vehicle was administered. 10 minutes later, the rats were placed in a stress cage and immersed to the level of xipfoid process in a water bath (21° C.) for 7 hours. At the end of the stress, the rats were sacrificed by inhalation of ether or carbon dioxide. Then, the stomach of each was removed, inflated by injecting 10 ml of 5% formalin neutral buffer solution, and immersed in 1% formalin neutral buffer solution for 30 minutes or more to be fixed. The stomach was incised along the greater curvature and then the length of each erosion in the glandular portion was determined under dissecting microscope. The sum of the length of erosions per stomach was defined as ulcer index (UI).
The effect obtained when 100 mg/kg of the sample compound had been administered was expressed as ulcer formation inhibitory rate (%) as follows:
ulcer formation inhibitory rate (%)=(1-(UI in sample group/UI in control

The test system of data set [2] is mice. Particulars: mouse, in vivo.
Description: AT: Single Dose Toxicity Pretest
Male Slc:ICR mice (5-week-old) were used. Each group has 3 to 5 mice and each mouse was fasted, but allowed free access to water, for 4 to 5 hours from 9 a.m. in the test day. Then, 2,000 mg/10 ml/kg of the sample compound dissolved or suspended in an aqueous solution of 0.5% sodium carboxymethyl cellulose was orally administered thereto. To a control, only the vehicle was administered. […] The body weight was measured before and after the fasting as well as at the same time everyday. The dead animals were immediately subjected to autopsy and their organs were observed microscopically. Also, the living animals were sacrificed with ether or carbon dioxide one week after the administration and then their organs were observed microscopically.
The toxicity at the single dose of 2,000 mg/kg of the sample compound was expressed as being classified into 5 levels.
5: Mortality rate is 0%; no toxicity is found at all both in behavior and organs.
4: Mortality rate is 0%; while no toxicity is found in organs, slight toxicity is observed in behavior and body weight increase.
3: While there is a dead animal (though not all the animals are dead), no toxicity is found in organs.
2: Regardless of whether there is a dead animal or not, toxicity is found in organs.
1: All the animals are dead.
A short description of data set [3]: MTT: Cell Damaging and Protecting Effect Test. Particulars: rabbit, gastric mucosa cells, 10^-4 M, 37° C., smaller value is better, read-out: MTT: cell damaging rate. The class given is cell-based, Japanese White rabbit. From the text: MTT: Cell Damaging and Protecting Effect Test
It is confirmed that there is no toxicity in cell level. Those having a toxicity in cell level are inappropriate as an anti-ulcer drug.
A male Japanese White rabbit (2.5 to 3 kg) was anesthetized to death by Nembutal™ and, immediately thereafter, its stomach was removed. The greater curvature of the stomach was incised so as to remove the stomach contents therefrom. After the mucosal surface was washed with HBSS (Hanks' Balanced Salt Solution), the stomach in ice-cooled HBSS was transferred to a laboratory. Then, after the pyloric antrum was removed, the gastric corpus mucosa was separated by a spatula and then minced into 2 to 3 mm^3 pieces in BME (Basal Medium Eagle). Thereafter, these pieces were shaken at 120 to 130 cycles/minute for 15 minutes at 37° C. in BME 60 ml containing 280 U/ml of dispase and 30 to 50 U/ml of collagenase. Here, the concentration of collagenase was appropriately changed for each lot in view of the state of cells. The pieces were washed twice with EBSS (Earle's Balanced Salt Solution) containing 1 mM of EDTA and then shaken in MEM (Minimum Essential Medium) containing 1 mM of EDTA at 37° C. for 5 minutes. Subsequently, they were shaken in the dispase and collagenase having the same concentrations as those mentioned above for 15 minutes so as to remove the supernatant and then further shaken at 37° C. for 50 to 60 minutes at 120 to 130 cycles/minute. Then, after being washed twice with HBSS, Ham F12 containing 2% of Ultrocer GT™ was used to attain the concentration of 1×10^6 cells/ml. Thus formed suspension was dispensed in each well of a 96-well plate by 200 μl. The plate was incubated in the atmosphere composed of 5% CO2 and 95% air at 37° C. for three days so as to attain a confluent state and then subjected to MTT assay.
The sample compound was dissolved in DMSO so as to attain a concentration of 10^-2 M and then diluted with HBSS containing 2% of Ultrocer G™ so as to attain a final concentration of 10^-4 M. To each group, which 8 wells were used for, 10 μl of MTT reagent was added immediately after 100 μl of the medium in each well was exchanged for same volume of the resulting solution of the sample compound. After being incubated in an atmosphere composed of 5% CO2 and 95% air at 37° C. for 4 hours, thus formed solution was centrifuged and then its supernatant was discarded. Subsequently, 100 μl of 100% ethanol was added to the residue so as to dissolve MTT formazan. Then, the absorbance (OD: 570 to 630) was measured by a microplate reader. This method utilizes a phenomenon in which MTT is changed to MTT formazan only by mitochondria of living cells so as to change color.
The cell damaging or cell protecting effect of the sample compound at the final concentration of 10^-4 M was expressed as cell damaging rate (%) as follows:
cell damaging rate (%)=(1-(absorbance in sample group/absorbance in control
Accordingly, the smaller value is better in the cell damaging rate.

Regarding `CC(C)=CCC/C(C)=C/COc1ccc(C(=O)NCCc2ccccn2)cc1` [Example 1, 2-[2-(4-geranyloxybenzoylamino)ethyl]pyridine], the “WIS: ulcer formation inhibitory rate” value in data set [1] was 50%. Moreover, in data set [2], the “AT: toxicity at the single dose (5 levels)” value (“AT: toxicity” for short) is on record as 5. The cytotoxicity at 4 h, 100 µM in data set [3] was determined as 8%.

Consider `CC(C)=CCC/C(C)=C/COc1ccc(C(=O)NCCc2ccncc2)cc1` [Example 2, 4-[2-(4-geranyloxybenzoylamino)ethyl]pyridine], for which the “WIS: ulcer formation inhibitory rate” value in data set [1] is 77%. Also, the “AT: toxicity” value in data set [2] was found to be 5. Moreover, the cytotoxicity at 4 h, 100 µM in data set [3] was found to be 7%.

`CC(C)=CCC/C(C)=C/COc1ccc(C(=O)NCc2ccncc2)cc1` [Example 3, 4-(4-geranyloxybenzoylaminomethyl)pyridine]: in data set [1], the “WIS: ulcer formation inhibitory rate” value was 61%. Further, the “AT: toxicity” value in data set [2] is reported as 5. Besides, the cytotoxicity at 4 h, 100 µM in data set [3] turned out to be 16%.

On to `CC(C)=CCC/C(C)=C/COc1ccc(C(=O)Nc2cccnc2)cc1` [Example 4, 3-(4-geranyloxybenzoylamino)pyridine], for which the “WIS: ulcer formation inhibitory rate” value in data set [1] came out at 39%. Besides, the cytotoxicity at 4 h, 100 µM in data set [3] was found to be 6%.

Turning to `CC(C)=CCOc1ccc(OCC=C(C)C)c(C(=O)NCCc2ccncc2)c1` [Example 6, 4-[2-(2,5-diprenyloxybenzoylamino)ethyl]pyridine], the “WIS: ulcer formation inhibitory rate” value in data set [1] was determined as 48%. Besides, in data set [3], the cytotoxicity at 4 h, 100 µM is -94%.

Take `CC(C)=CCC/C(C)=C/COc1ccc(C(=O)NCCNc2cccnc2)cc1` [Example 7, 3-[2-(4-geranyloxybenzoylamino)ethylamino]pyridine]: the “WIS: ulcer formation inhibitory rate” value in data set [1] came out at 81%. Further, the cytotoxicity at 4 h, 100 µM in data set [3] was 48%.

For `COc1ccc(NCCNC(=O)c2ccc(OC/C=C(\C)CCC=C(C)C)cc2)nc1` [Example 8, 2-[2-(4-geranyloxybenzoylamino)ethylamino]-5-methoxypyridine], in data set [1], the “WIS: ulcer formation inhibitory rate” value worked out at 55%. The “AT: toxicity” value in data set [2] is reported as 5. Moreover, the cytotoxicity at 4 h, 100 µM in data set [3] was -45%.

With `CC(C)=CCC/C(C)=C/COc1ccc(C(=O)NCCNc2cc(C)cc(C)n2)cc1` [Example 10, 2,4-dimethyl-6-[2-(4-geranyloxybenzoylamino)ethylamino]pyridine], in data set [1], the “WIS: ulcer formation inhibitory rate” value stood at 55%. The “AT: toxicity” value in data set [2] amounted to 4. In addition, the cytotoxicity at 4 h, 100 µM in data set [3] is 65%.

On to `COc1ccc(SCCNC(=O)c2ccc(OC/C=C(\C)CCC=C(C)C)cc2)nc1` [Example 11, 2-[2-(4-geranyloxybenzoylamino)ethylthio]-5-methoxypyridine], for which, in data set [1], the “WIS: ulcer formation inhibitory rate” value turned out to be 61%. Moreover, in data set [2], the “AT: toxicity” value amounted to 5. The cytotoxicity at 4 h, 100 µM in data set [3] was -34%.

Consider `CC(C)=CCC/C(C)=C/COc1ccc(C(=O)NCC(=O)Nc2ccccn2)cc1` [Example 13, 2-[2-(4-geranyloxybenzoylamino)acetylamino]pyridine], for which the “WIS: ulcer formation inhibitory rate” value in data set [1] turned out to be 33%. For the same molecule, in data set [2], the “AT: toxicity” value stood at 5. Besides, the cytotoxicity at 4 h, 100 µM in data set [3] was -36%.
